Reference: ChEMBL document CHEMBL1132362, “Synthesis of 5-(carboranylalkylmercapto)-2'-deoxyuridines and 3-(carboranylalkyl)thymidines and their evaluation as substrates for human thymidine kinases 1 and 2” (J Med Chem, 1999)

Tested on: Thymidine Kinase (TK1)
Experiment: Kinetic constant Km for Thymidine Kinase (TK1)
Type: ADME

Question: Cc1cn([C@H]2C[C@H](O)[C@@H](CO)O2)c(=O)[nH]c1=O [DOXRIBTIMINE] was tested. Which Km did it give?
Answer: 1 µM
